The record followed here is patent US8088806B2 (Achillion Pharmaceuticals, Inc., priority 2005, dated 2012).

In this experiment the test system is HCV replicon. Description: Replicon based assay of HCV replication inhibition (NPT ELISA). The format is cell-based, Hepatitis C virus. The following applies: Hepatitis C virus, replicon based assay of HCV replication inhibition; Table II; read-out: Activity. An outline of the steps: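 NPT (neomycin phosphotransferase) content, proportional to replicon replication, quantified by capture ELISA on day four. Before that, replicon-bearing Huh-7 cells in G418-free screening medium were exposed three days at 37° C to compound, typically six doses from 10 to 0.03 micromolar, with equal DMSO across wells.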
Background: Replicon systems follow genome replication, usually without infectious particles.
Turning to `CCCCCOc1ccc(Nc2nc(-c3ccc(Br)cc3)cs2)cc1C(F)(F)F` [compound 406, 4-(4-bromophenyl)-N-(3-(trifluoromethyl)-4-(pentyloxy)phenyl)thiazol-2-amine], the EC50 was below 1000 nM.

With `CCCCCOc1ccc(Nc2nc(-c3ccc4[nH]c(=O)oc4c3)cs2)cc1C(F)(F)F` [compound 407, 6-(2-(3-(trifluoromethyl)-4-(pentyloxy)phenylamino)thia-zol-4-yl)benzo[d]oxazol-2(3H)-one], the EC50 is below 1000 nM.

On to `CCCCCOc1ccc(Nc2nc(-c3cccc(C(=O)O)c3)cs2)cc1C(F)(F)F` [compound 408, 3-(2-(3-(trifluoromethyl)-4-(pentyloxy)phenylamino)thia-zol-4-yl)benzoic acid], for which the EC50 is below 1000 nM.

For the molecule `CCCCCOc1ccc(Nc2nc(-c3ccccn3)cs2)cc1C(F)(F)F` [compound 409, N-(3-(trifluoromethyl)-4-(pentyloxy)phenyl)-4-(pyridin-2-yl)thiazol-2-amine], the EC50 was below 1000 nM.

On to `CCCCCOc1ccc(Nc2nc(-c3c[nH]c4ccccc34)cs2)cc1C(F)(F)F` [compound 410, N-(3-(trifluoromethyl)-4-(pentyloxy)phenyl)-4-(1H-indol-3-yl)thiazol-2-amine], for which the EC50 is below 1000 nM.

With `CCCCCOc1ccc(Nc2nc(-c3ccc(-c4ccccn4)s3)cs2)cc1C(F)(F)F` [compound 411, N-(3-(trifluoromethyl)-4-(pentyloxy)phenyl)-4-(5-(pyridin-2-yl)thiophen-2-yl)thiazol-2-amine], the EC50 is below 1000 nM.

With `CCCCCOc1ccc(Nc2nc(-c3nc4ccccc4s3)cs2)cc1C(F)(F)F` [compound 412, 4-(benzo[d]thiazol-2-yl)-N-(3-(trifluoromethyl)-4-(pentyloxy)phenyl)thiazol-2-amine], the EC50 was below 1000 nM.

For `CCCCCOc1ccc(Nc2nc(-c3cc4ccccc4o3)cs2)cc1C(F)(F)F` [compound 413, 4-(benzofuran-2-yl)-N-(3-(trifluoromethyl)-4-(pentyloxy)phenyl)thiazol-2-amine], the EC50 is below 1000 nM.

Turning to `CCCCCOc1ccc(Nc2nc(-c3sc(-c4cnccn4)nc3C)cs2)cc1C(F)(F)F` [compound 414, N-(3-(trifluoromethyl)-4-(pentyloxy)phenyl)-4-(4-methyl-2-(pyrazin-2-yl)thiazol-5-yl)thiazol-2-amine], the EC50 is below 1000 nM.

For `CCCCCOc1ccc(Nc2nc(CC)cs2)cc1C(F)(F)F` [compound 415, 4-ethyl-N-(3-(trifluoromethyl)-4-(pentyloxy)phenyl)thiazol-2-amine], the EC50 was below 1000 nM.

In the case of `CCCCCCCCOc1ccc(Nc2nc(-c3ccncc3)cs2)cc1` [compound 416, N-(4-(octyloxy)phenyl)-4-(pyridin-4-yl)thiazol-2-amine], the EC50 is below 1000 nM.

For `CCCCCOc1ccc(Nc2nc(-c3ccncc3)cs2)cc1F` [compound 417, N-(3-fluoro-4-(pentyloxy)phenyl)-4-(pyridin-4-yl)thiazol-2-amine], the EC50 was 1000 to 10000 nM.

Regarding `CCCCCOc1ccc(Nc2nc(-c3ccccn3)cs2)cc1F` [compound 418, N-(3-fluoro-4-(pentyloxy)phenyl)-4-(pyridin-2-yl)thiazol-2-amine], the EC50 was below 1000 nM.

As for `CCCCCOc1ccc(Nc2nc(-c3cc4ccccc4o3)cs2)cc1F` [compound 419, 4-(benzofuran-2-yl)-N-(3-fluoro-4-(pentyloxy)phenyl)thiazol-2-amine], the EC50 is 1000 to 10000 nM.

On to `CCCCCCCOc1ccc(Nc2nc(-c3ccc(F)cc3)cs2)cc1` [compound 420, 4-(4-fluorophenyl)-N-(4-(heptyloxy)phenyl)thiazol-2-amine], for which the EC50 is below 1000 nM.

For `CCCCCCCOc1ccc(Nc2nc(-c3ccc(Cl)c(Cl)c3)cs2)cc1` [compound 421, 4-(3,4-dichlorophenyl)-N-(4-(heptyloxy)phenyl)thiazol-2-amine], the EC50 was below 1000 nM.

`CCCCCCCOc1ccc(Nc2nc(-c3ccc(Cl)cc3)cs2)cc1` [compound 422, 4-(4-chlorophenyl)-N-(4-(heptyloxy)phenyl)thiazol-2-amine]: the EC50 is below 1000 nM.
